Test results from patent US20240398749A1, “INHALABLE PROTEASE INHIBITORS FOR USE IN THE PREVENTION AND/OR TREATMENT OF FIBROTIC AUTOIMMUNE OR INFLAMMATORY LUNG DISEASES” (priority 2021, published 2024).
“And” between values parts separate entries of the source, which are not always exact repeats. Equal values may be shown once. Read-outs that look alike come from different tables or passages of the source.

How the values were obtained:
Th17-lymphocytes = assay: Measurement of Th17-lymphocytes by flow cytometry; assay type: cell-based, human
IL-17 release = IL-17 release from human mononuclear cells in whole blood stimulated with cytokines; assay type: cell-based
A549 cells [1] = assay: IL-8 release from A549 cells, spontaneous or TGFbeta-induced; assay type: cell-based; conditions: TGFbeta stimulation, 24 h, 10 μg/ml E64D
[2] = system: THP1 cells (macrophage-like cell line); assay: IL-8 release from stimulated THP1 cells; assay type: cell-based; conditions: IL-1 or TNF/IL-1 stimulated cells, 24 hours
Description: This stimulation corresponds to a pro-inflammatory response. The supernatants were then removed, and the IL-8 release was measured.

A549 cells [3] = assay type: cell-based
[4] = Nebulizer test / cascade impactor measurements with M-neb dose+; assay type: physicochemical
Wistar rats = assay: Dose range finding study, 14 days nose-only inhalation; assay type: in vivo; conditions: for lung with a spongy consistency (animals affected): females
Source text: The purpose of this study was to perform a dose range finding (DRF) study using 14 days nose-only-inhaled Aloxistatin in rats. Possible side effects of Aloxistatin were characterized based on clinical observations, body weight, hematology, clinical pathology, macroscopic examination and histopathology of selected organs (respiratory tract, heart, kidneys, liver and spleen). Additionally, the setup of chemical analysis method for toxicokinetic analysis was established.
For the study, 64 Wistar rats [Crl:Wistar(Han)] received the test item at doses of 22.67, 68 or 227 μg/kg bw for 14 consecutive days via nose-only inhalation. Ethanol ≥96% was used as vehicle. Animals of the main study were sacrificed on […].
All animals were clinically observed in their cages at least once a day. Individual body weights were determined twice weekly. Blood samples for hematology and clinical chemistry were withdrawn before the exposure and on day 14. Necropsy, including a macroscopic evaluation of selected organs, was performed on day 15 or day 29 followed by histopathology of preselected organs. All macroscopic changes were recorded. Blood and lung sampling for setup of chemical analysis method for toxicokinetic analysis was performed on day 1 and 15 and upon sacrifice (day 2 and 15), respectively.

SARS-CoV-2 [5] = assay type: cell-based; conditions: HEK293-ACE2, MOI 5, 100 μM
SARS-CoV-2 [6] = assay type: cell-based; conditions: A549, MOI 5, 100 μM
pseudovirus = assay: Pseudovirus inoculation of human ACE2 transgenic mice, bioluminescence assay; assay type: in vivo; conditions: pre-treated via tail vein injection 2 days prior to virus inoculation; 1 day post infection
fibroblasts = assay type: cell-based
Vero e6-cells = conditions: concentrations up to 100 μM
Th17 differentiation = conditions: rats; cited from earlier work
Mouse-Coronavirus = Mouse-Coronavirus model systems; cited from earlier work
SARS-CoV-2 [7] = conditions: E64d added to the TMPRSS2 inhibitor Camostat; cited from earlier work
physchem = conditions: organic solvent or mixture
[8] = in vivo, po; cited from earlier work
[9] = cited from earlier work
[10] = system: human peripheral blood cells (PBI); assay: Chromosome aberration test
[11] = system: Salmonella typhimurium strains TA 1535, TA 1537, TA 98, TA 100, and the Escherichia coli strain WP2 uvrA; assay: Reverse mutation assay (plate incorporation test)
rats = assay: Toxicology study, 14-day inhalational applications; conditions: inhalation on 14 consecutive days
mice = conditions: cited from earlier work
[12] = 22.67, 68 or 227 μg/kg bw, 14 days nose-only inhalation

What does the source list for `CCOC(=O)[C@H]1O[C@@H]1C(=O)N[C@@H](CC(C)C)C(=O)NCCC(C)C` [E64D, aloxistatin]?
polarization of Th2-lymphocytes (Th17-lymphocytes): polarize Th2-lymphocytes into Th1-lymphocytes; Th1 cells (Th17-lymphocytes; co-incubation with E64D): dose-dependently up-regulates; Th17 and Th17.1 cells (Th17-lymphocytes; co-incubation with E64D): dose-dependently down-regulates; Treg lymphocytes (Th17-lymphocytes; co-incubation with E64D): upregulation of Treg lymphocytes; percentage of Th17 cells (Th17-lymphocytes; stimulation with IC-beads, with or without cytokine mix, whole blood lymphocytes and T-lymphocytes from bronchoalveolar lavage): reduces the percentage of Th17 cells; release of the cytokine IL-17 (IL-17 release): can be inhibited; TGFbeta-induced IL-8 release (A549 cells [1]): block the induction almost completely; IL-8 release [2]: clearly lowers the IL-8 release; TGF-beta induced release of alpha-smooth muscle actin (aSMA) (A549 cells [3]): inhibits the TGF-beta induced release; TGF-beta induced release of collagen 1 (A549 cells [3]): inhibits the TGF-beta induced release; TGFbeta-induced collagen production (A549 cells [3]): lowers the TGFbeta-induced collagen production of A549 in a dose-dependent manner; TGFbeta-induced collagen release at highest dose (A549 cells [3]): almost goes back to the initial value; aerosol output (fraction of actually inhaled E64d) ([4]; 0.34 mg/ml solution): 80%; aerosol output (fraction of actually inhaled E64d) ([4]; 34 mg/ml solution): 63%; fine particle fraction (<5 μm) ([4]; all concentrations tested (0.34, 3.4 and 34 mg/ml)): > 95%; aerosol release rate ([4]; concentration of the solution 340 ug/ml): 0.108 mg/min; aerosol release rate ([4]; concentration of the solution 3.4 mg/ml): 1 mg/min; aerosol release rate ([4]; concentration of the solution 34 mg/ml): 8.7 mg/min; cumulative active compound deposition ([4]; particle size distribution about 0.5-3 μm, impactor assays): > 99%; body weight (Wistar rats; [12]): no statistical differences between the groups; changes in clinical chemistry parameters (Wistar rats; [12]): considered incidental; clinical observations (Wistar rats; [12]): no clinical observations were noted; mortality (Wistar rats; [12]): No animal was found dead or killed moribund; lung with a spongy consistency (animals affected) (Wistar rats; low dose group): 1/5; lung with a spongy consistency (animals affected) (Wistar rats; medium dose group): 1/5; slightly enlarged lung-associated lymph nodes (animals affected) (Wistar rats; male animals, medium dose group, macroscopic examination): 2/5; histopathological examination (Wistar rats; respiratory tract, lymph nodes, heart, kidneys, liver, spleen, after 14 days and after 14 days recovery): no treatment-related findings were detected; cell lysis (SARS-CoV-2 [5]): effectively inhibited; virus replication of SARS-CoV-2 (SARS-CoV-2 [5]): effectively inhibited; cell lysis (SARS-CoV-2 [6]): effectively inhibited; virus replication of SARS-CoV-2 (SARS-CoV-2 [6]): effectively inhibited; bioluminescence activity (virus replication) (pseudovirus): decrease in bioluminescence activity; IL-17 induced proliferation and differentiation of fibroblasts (fibroblasts): inhibiting the IL-17 induced proliferation and differentiation of fibroblasts; cytotoxicity (Vero e6-cells): non-toxic; Th17 differentiation (Th17 differentiation): suppresses Th17 differentiation in a dose-dependent manner; virus replication (Mouse-Coronavirus): effective inhibition of virus replication; inhibition of virus entry (SARS-CoV-2 [7]): additive efficacy; solubility (physchem): ≤ 68000 µg/mL and ≤ 199000 µM; dose absorbed [8]: at least 60%; serum AST and ALT activities ([9]; rat, in vivo): rose dramatically; time of minimum liver GSH level after administration ([9]; rat, in vivo): 5 h; liver glutathion (GSH) levels ([9]; rats): obvious drop; aberrant cells (gaps excluded) ([10]; after 4 h of treatment, both without and with S9-mix): only one aberrant cell; structural chromosome aberrations ([10]; treated PBL): nearly complete absence of structural chromosome aberrations; precipitation in the overlay agar on the incubated agar plates [11]: 5000 μg/plate; toxic effects (reduction in the number of revertants) ([11]; all strains, with and without metabolic activation, up to 5000 μg/plate): No toxic effects; increase in revertant colony numbers ([11]; five tester strains, any dose level, with and without S9 mix): No substantial increase; mutagenicity ([11]; reverse mutation assay conclusion): non-mutagenic; No-Observed-Adverse-Effect-Level (NOAEL), pulmonary dose (rats): 413 μg/kg bw

Which emphysematous changes (mice) does the source give for `CC(C)C[C@H](NC(=O)[C@H]1O[C@@H]1C(=O)O)C(=O)NCCCCN=C(N)N` [E64] here?
The emphysematous changes was “markedly attenuated emphysematous changes”.
